The values below come from patent US8053574B2, “Organic compounds” (Novartis AG, priority 2007, dated 2011).

For one assay, the target named is PI3K γ (Homo sapiens, UniProt P48736). The assay is described as follows: PI3 kinase phosphorylation assay (Biological Method 1), Ki γ. The settings on record: Table 1, compounds of formula X. In kind it is biochemical. On the procedure: The compounds of the invention were synthesized according to the examples provided above. PI3K inhibitory (IC50) values of the compounds were determined according to Biological Method 1.
PI3K γ, sequence (P48736 whole entry): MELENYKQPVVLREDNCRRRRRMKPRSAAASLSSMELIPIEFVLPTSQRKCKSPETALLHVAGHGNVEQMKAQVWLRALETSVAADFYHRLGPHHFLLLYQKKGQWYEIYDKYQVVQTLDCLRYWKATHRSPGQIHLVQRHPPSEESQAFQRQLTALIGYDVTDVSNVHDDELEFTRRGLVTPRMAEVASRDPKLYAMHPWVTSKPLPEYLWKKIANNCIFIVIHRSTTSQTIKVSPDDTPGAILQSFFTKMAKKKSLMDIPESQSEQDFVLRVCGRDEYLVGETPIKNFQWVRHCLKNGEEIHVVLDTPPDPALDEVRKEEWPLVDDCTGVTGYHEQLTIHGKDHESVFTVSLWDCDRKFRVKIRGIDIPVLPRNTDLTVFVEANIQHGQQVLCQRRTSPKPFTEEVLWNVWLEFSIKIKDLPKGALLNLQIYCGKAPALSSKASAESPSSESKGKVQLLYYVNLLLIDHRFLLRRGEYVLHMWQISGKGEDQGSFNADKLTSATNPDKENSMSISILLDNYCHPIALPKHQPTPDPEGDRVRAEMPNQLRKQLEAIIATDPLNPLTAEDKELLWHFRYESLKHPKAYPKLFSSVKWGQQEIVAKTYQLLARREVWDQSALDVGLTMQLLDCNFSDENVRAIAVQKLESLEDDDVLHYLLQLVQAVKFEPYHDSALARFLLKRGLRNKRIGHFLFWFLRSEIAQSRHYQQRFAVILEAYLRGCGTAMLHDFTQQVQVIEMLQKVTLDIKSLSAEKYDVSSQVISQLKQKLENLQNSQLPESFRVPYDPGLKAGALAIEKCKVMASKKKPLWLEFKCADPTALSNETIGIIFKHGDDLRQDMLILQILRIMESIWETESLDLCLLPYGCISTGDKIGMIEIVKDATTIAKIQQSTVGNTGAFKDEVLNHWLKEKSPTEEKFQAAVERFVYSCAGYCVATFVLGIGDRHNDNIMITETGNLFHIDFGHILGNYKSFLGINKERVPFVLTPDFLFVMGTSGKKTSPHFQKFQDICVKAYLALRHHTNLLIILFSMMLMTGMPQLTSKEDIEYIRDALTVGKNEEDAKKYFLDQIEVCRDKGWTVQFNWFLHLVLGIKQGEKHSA
Assay 1: Homogenous Solution Phase Assay
Compounds to be tested are dissolved in DMSO and directly distributed into 384-well flashplates at 1.25 μL per well. To start the reaction, 20 μL of 6 nM PI3 kinase are added into each well followed by 20 μL of 400 nM ATP containing a trace of radiolabeled ATP and 900 nM 1-alpha-phosphatidylinositol (PI). The plates are briefly centrifuged to remove any air gap. The reaction is performed for 15 minutes and then stopped by the addition of 20 μL of 100 mM EDTA. The stopped reaction is incubated overnight at RT to allow the lipid substrate to bind by hydrophobic interaction to the surface of the flashplate. The liquid in the wells is then washed away, and the labeled substrate is detected with scintillation counting.
Assay 2: One Step Solid Phase Assay
This method is similar to Assay 1 except that the lipid substrate (1-alpha-phosphatidylinositol (PI)) is first dissolved in a coating buffer and incubated on flashplate at room temperature overnight to allow the lipid substrate to bind by hydrophobic interaction to the surface of the flashplate. Unbound substrate is then washed away. On the day of assay, 20 μL of 6 nM PI3 kinase are added into each well followed by 20 μL of 400 nM ATP containing trace of radiolabeled ATP. Compounds are added together with enzyme and ATP to the lipid-coated plates. The plates are briefly centrifuged to remove any air gap. The reaction is performed for two to three hours. The reaction is stopped by addition of 20 μL of 100 mM EDTA or by immediate plate washing. Phosphorylated lipid substrate is detected by scintillation counting.
Assay 3: ATP Depletion Assay
Compounds to be tested are dissolved in DMSO and directly distributed into a black 384-well plate at 1.25 μL per well. To start the reaction, 25 μL of 10 nM PI3 kinase and 5 μg/mL 1-alpha-phosphatidylinositol (PI) are added into each well followed by 25 μL of 2 μM ATP. The reaction is performed until approx 50% of the ATP is depleted, and then stopped by the addition of 25 μL of KinaseGlo solution. The stopped reaction is incubated for 5 minutes and the remaining ATP is then detected via luminescence.
Consider `COc1ccc(-c2ccc3nc(NC(=O)NCCc4nnn(CCF)n4)cn3c2)cn1` [drawing 53], for which the inhibitory constant (Ki) – broadly, a dissociation constant, usually derived from enzyme kinetics or from competition with a known ligand – amounted to 0.075 µM. The same measure, in the same setting: then `CCn1nnc(CCNC(=O)Nc2cn3cc(-c4cnn(Cc5ccccc5)c4)ccc3n2)n1`, with 0.735 µM; and `CC(C)n1nnc(CCNC(=O)Nc2cn3cc(-c4cncc(Cl)c4)ccc3n2)n1` [drawing 37], with 0.05 µM; and `CCn1nnc(CCNC(=O)Nc2cn3cc(-c4cncc5ccccc45)ccc3n2)n1` [drawing 97], with 0.158 µM.

`CC(C)n1nnc(CCNC(=O)Nc2cn3cc(-c4cncc(S(C)(=O)=O)c4)ccc3n2)n1`: the Ki is 0.014 µM. `CC(C)n1nnc(CCNC(=O)Nc2cn3cc(-c4cncnc4)ccc3n2)n1` [drawing 21] registered an inhibition constant Ki of 0.165 µM. Compared with the last compound, the Ki is about 12-fold higher. Take `CC(C)(C)NC(=O)CCNC(=O)Nc1cn2cc(-c3cncc(OC4CCOCC4)c3)ccc2n1` [drawing 49]: the Ki is 0.397 µM. The compound `CCOc1cncc(-c2ccc3nc(NC(=O)NCCc4nnn(C(C)C)n4)cn3c2)c1` [drawing 25] displayed an inhibition constant (Ki) of 0.048 µM. Take `CCn1nnc(CCNC(=O)Nc2cn3cc(-c4ccc5c(c4)OCO5)ccc3n2)n1` [drawing 29]: the inhibitory constant (Ki) turned out to be 0.303 µM.

Turning to `CC(C)n1nnc(CCNC(=O)Nc2cn3cc(-c4cncc(C(F)(F)F)c4)ccc3n2)n1` [drawing 27], the affinity, expressed as Ki, was 0.018 µM. Consider `Cc1ccccc1-c1cncc(-c2ccc3nc(NC(=O)NCCc4nnn(C(C)C)n4)cn3c2)c1` [drawing 91], for which the inhibition constant (Ki) was 1.12 µM. For the compound `CC(C)n1nnc(CCNC(=O)Nc2cn3cc(-c4ccncc4)ccc3n2)n1` [drawing 17], the Ki turned out to be 0.135 µM. This Ki lies about 8.3-fold lower than the previous one. Still for that read-out and setting: then `O=C(NCCc1nnn(CCF)n1)Nc1cn2cc(-c3cncc(C(F)(F)F)c3)ccc2n1` [drawing 83], with 0.002 µM. On to `CC(C)n1nnc(CCNC(=O)Nc2cn3cc(-c4ccccc4)ccc3n2)n1` [drawing 75], for which the Ki amounted to 0.423 µM. On to `CCc1nnn(CCNC(=O)Nc2cn3cc(-c4cncc(C(F)(F)F)c4)ccc3n2)n1` [drawing 63], for which the Ki came to 0.026 µM. The compound `COc1ccc(-c2ccc3nc(NC(=O)NCCc4nnn(C(C)C)n4)cn3c2)cn1` [drawing 51] yielded an inhibition constant Ki of 0.301 µM. Still for that read-out and setting: then `CCn1nnc(CCNC(=O)Nc2cn3cc(-c4cncc(C(F)(F)F)c4)ccc3n2)n1` [drawing 81], with 0.007 µM.

Staying with this assay, now noted: Table 2, compounds of formula X.
With `Cn1nnc(CCNC(=O)Nc2cn3cc(-c4cncc(C(F)(F)F)c4)ccc3n2)n1` [Example 1-38, 1-[2-(2-Methyl-2H-tetrazol-5-yl)-ethyl]-3-[6-(5-trifluoromethyl-pyridin-3-yl)-imidazo[1,2-a]pyridin-2-yl]-urea], the Ki worked out at 0.012 µM. With “1-[2-(2-Isopropyl-2H-tetrazol-5-yl)-ethyl]-3-(6-quinolin-3-yl-imidazo[1,2-a]pyridin-2-yl)-urea [Example 1-49]”, the inhibition constant (Ki) is 0.57 µM. Consider `CCn1nnc(CCNC(=O)Nc2cn3cc(-c4cncc(C(F)(F)F)c4)ccc3n2)n1` [Example 1-34, 1-[2-(2-Ethyl-2H-tetrazol-5-yl)-ethyl]-3-[6-(5-trifluoromethyl-pyridin-3-yl)-imidazo[1,2-a]pyridin-2-yl]-urea], for which the Ki was 0.007 µM. Against the preceding compound, the Ki is about 81-fold lower.

In turn, `CCc1cncc(-c2ccc3nc(NC(=O)NCCc4nnn(C(C)C)n4)cn3c2)c1` [Example 1-22, 1-[6-(5-Ethyl-pyridin-3-yl)-imidazo[1,2-a]pyridin-2-yl]-3-[2-(2-isopropyl-2H-tetrazol-5-yl)-ethyl]-urea] had a Ki of 0.025 µM. For the compound `COCCOCCOc1cncc(-c2ccc3nc(NC(=O)NCCc4nnn(C(C)C)n4)cn3c2)c1` [Example 1-17, 1-[2-(2-Isopropyl-2H-tetrazol-5-yl)-ethyl]-3-(6-{5-[2-(2-methoxy-ethoxy)-ethoxy]-pyridin-3-yl}-imidazo[1,2-a]pyridin-2-yl)-urea], the Ki came out at 0.268 µM. `Cc1cc(NC(=O)CCNC(=O)Nc2cn3cc(Br)ccc3n2)no1` [Example 1-46, 3-[3-(6-Bromo-imidazo[1,2-a]pyridin-2-yl)-ureido]-N-(5-methyl-isoxazo-3-yl)-propionamide] yielded a Ki of 4.98 µM. `CC(C)n1nnc(CCNC(=O)Nc2cn3cc(-c4cncc(OC5CCOCC5)c4)ccc3n2)n1` [Example 1-13, 1-[2-(2-Isopropyl-2H-tetrazol-5-yl)-ethyl]-3-{6-[5-(tetrahydro-pyran-4-yloxy)-pyridin-3-yl}-imidazo[1,2-a]pyridin-2-yl]-urea]: the affinity, expressed as Ki, was 0.147 µM. In the case of `CCn1nnc(CCNC(=O)Nc2cn3cc(-c4cccc(C(F)(F)F)c4)ccc3n2)n1` [Example 1-9, 1-[2-(2-Ethyl-2H-tetrazol-5-yl)-ethyl]-3-[6-(3-trifluoromethyl-phenyl)-imidazo[1,2-a]pyridin-2-yl]-urea], the Ki is 0.24 µM. Compared with the last compound, the Ki is about 1.6-fold higher. Same read-out and setting: then `O=C(NCCn1nnc(C2CC2)n1)Nc1cn2cc(-c3cncc(C(F)(F)F)c3)ccc2n1` [Example 1-27, 1-[2-(5-Cyclopropyl-tetrazol-2-yl)-ethyl]-3-[6-(5-trifluoromethyl-pyridin-3-yl)-imidazo[1,2-a]pyridin-2-yl]-urea], with 0.028 µM.

As to `CC(C)n1nnc(CCNC(=O)Nc2cn3cc(-c4cccc(F)c4)ccc3n2)n1` [Example 1-28, 1-[6-(3-Fluoro-phenyl)-imidazo[1,2-a]pyridin-2-yl]-3-[2-(2-isopropyl-2H-tetrazol-5-yl)-ethyl]urea], affinity was put at a Ki of 0.836 µM.

On to `CC(=O)c1cncc(-c2ccc3nc(NC(=O)NCCc4nnn(C(C)C)n4)cn3c2)c1` [Example 1-43, 1-[6-(5-Acetyl-pyridin-3-yl)-imidazo[1,2-a]pyridin-2-yl]-3-[2-(2-isopropyl-2H-tetrazol-5-yl)-ethyl]urea], for which the Ki is 0.008 µM. `CC(C)n1nnc(CCNC(=O)Nc2cn3cc(-c4ccncc4)ccc3n2)n1` [Example 1-2, 1-[2-(2-Isopropyl-2H-tetrazol-5-yl)-ethyl]-3-(6-pyridin-4-yl-imidazo[1,2-a]pyridin-2-yl)-urea] displayed an inhibition constant (Ki) of 0.135 µM. `CC(C)n1nnc(CCNC(=O)Nc2cn3cc(-c4cncc(-c5ccccc5)c4)ccc3n2)n1` [Example 1-16, 1-[2-(2-Isopropyl-2H-tetrazol-5-yl)-ethyl]-3-[6-(5-phenyl-pyridin-3-yl)-imidazo[1,2-a]pyridin-2-yl]urea] registered a Ki of 0.24 µM.

The assay is the same for the next values; noted with them: Table 3, compounds of formula XI.
In turn, `CCn1nnc(CCNC(=O)Nc2nc3ccc(-c4cncc(C(F)(F)F)c4)cc3s2)n1` [Example 2-9, 1-[2-(2-Ethyl-2H-tetrazol-5-yl)-ethyl]-3-[6-(5-trifluoromethyl-pyridin-3-yl)-benzothiazol-2-yl]-urea] yielded an inhibitory constant (Ki) of 0.06 µM. As to `CCc1nnn(CCNC(=O)Nc2nc3ccc(-c4cncc(C(F)(F)F)c4)cc3s2)n1` [Example 2-11, 1-[2-(5-Ethyl-tetrazol-2-yl)-ethyl]-3-[6-(5-trifluoromethyl-pyridin-3-yl)-benzothiazol-2-yl]urea], the inhibitory constant (Ki) is 0.242 µM. Same read-out and setting: then `CC(C)n1nnc(CCNC(=O)Nc2nc3ccc(-c4cncc(C(F)(F)F)c4)cc3s2)n1` [Example 2-10, 1-[2-(2-Isopropyl-2H-tetrazol-5-yl)-ethyl]-3-[6-(5-trifluoromethyl-pyridin-3-yl)-benzothiazol-2-yl]urea], with 0.092 µM; and `O=C(NCCc1nnn(CCF)n1)Nc1nc2ccc(-c3cccnc3)cc2s1` [Example 2-1, 1-{2-[2-(2-Fluoro-ethyl)-2H-tetrazol-5-yl]-ethyl}-3-(6-pyridin-3-yl-benzothiazol-2-yl)-urea], with 0.008 µM.

The assay is the same for the next values; noted with them: Table 4.
Compound `CCn1nnc(CCNC(=O)Nc2cn3cc(-c4cncc(C(F)(F)F)c4)cnc3n2)n1` [Example 3-10, 1-[2-(2-Ethyl-2H-tetrazol-5-yl)-ethyl]-3-[6-(5-trifluoromethyl-pyridin-3-yl)-imidazo[1,2-a]pyrimnidin-2-yl]-urea] showed an inhibition constant (Ki) of 0.884 µM. In other words, the sub-micromolar range. Compound `CCn1nnc(CCNC(=O)Nc2cn3nc(-c4cccnc4)ccc3n2)n1` [Example 3-3, 1-[6-(pyridin-3-yl)-imidazo[1,2-b]pyridazin-2-yl]-3-[2-(2-ethyl-2H-tetrazol-5-yl)-ethyl]-urea] registered a Ki of 0.031 µM. This Ki lies about 29-fold lower than the previous one.

As to `CCn1nnc(CCNC(=O)Nc2cn3nc(-c4cncc(C(F)(F)F)c4)ccc3n2)n1` [Example 3-1, 1-[2-(2H-Ethyl-2H-tetrazole-5-yl)-ethyl]-3-[6-(5-trifluoromethyl-pyridin-3-yl)-imidazo[1,2-b]pyridazin-2-yl]-urea], the affinity corresponds to a Ki of 0.012 µM. This Ki lies about 2.6-fold lower than the previous one.

Regarding `CCn1nnc(CCNC(=O)Nc2cn3nc(-c4cncc(F)c4)ccc3n2)n1` [Example 3-17, 1-[2-(2-Ethyl-2H-tetrazol-5-yl)-ethyl]-3-[6-(5-fluoro-pyridin-3-yl)-imidazo[1,2-b]pyridazin-2-yl]-urea], the inhibition constant (Ki) came out at 0.107 µM.
